These results are taken from US20260284016A1, “COMBINATIONS AND METHODS FOR ENHANCING CHECKPOINT INHIBITOR THERAPIES IN CANCER TREATMENT” (PURDUE RESEARCH FOUNDATION, priority 2004, published 2026).

Molecules are shown by their SMILES.

Data set [1] in a line: Stability during incubation in culture media. Type of data set: physicochemical. The following applies: 37° C. in the culture media, 48 hours. As for the experimental part:
Indeed, Compound 1B retained the original structure after 48 hours incubation.

For data set [2], the system named is M2-induced human monocyte-derived macrophages. Nature of the data set: Reprogramming of M2-induced human monocyte-derived macrophages with FA-glucosamine competition. It counts as cell-based. The conditions noted are these: 100 nM, 2+46 hours. How it is done:
Arg1 (FIG. 19A), CD206 (FIG. 19B) and CD163 (FIG. 19C), and protein levels of secreted anti-inflammatory CCL18 (FIG. 19D) and proinflammatory cytokines, CXCL10 (FIG. 19E) and IL-6 (FIG. 19F) (n=3, technical replicates) were then determined. Changes in both sets of cytokines were inhibited by blockade of unoccupied folate receptors with excess FA-glucosamine (2+46 hours, competition).

Data set [3] deals with M2-induced THP-1 macrophages. Nature of the data set: Secreted CCL18 and IL-1β in THP-1 supernatants by ELISA. Type of data set: cell-based, human. As for the experimental part: FIGS. 6A-6D show graphical data representative of various marker levels measured from M2-induced THP-1 macrophages treated with different concentrations of drugs for 48 hours (FIGS. 6A and 6B) or for 2 hours, then displaced with fresh medium and cultured for the remaining 46 hours (FIGS. 6C and 6D). In both cases, cell supernatants were collected and secreted CCL18 protein and IL-1β was detected by ELISA.
Further, to ensure that the above mRNA analyses accurately reflected the levels of anti-inflammatory cytokines produced by IL-4, IL-6 plus IL-13 stimulated THP-1 cells, the concentrations of CCL18 and IL-1β polypeptides in the THP-1 supernatants were quantitated by ELISA assay.
(§1) CCL18 and IL-1β were quantified in induced THP-1 cell supernatants using a human DuoSet ELISA Development System (R&D Systems Europe, Abingdon, UK: #DY394-05) and an IL-1 beta Human ELISA Kit (Thermo Fisher Scientific, Waltham, MA; #BMS224-2) as described by manufactures. BALF samples were analyzed for mouse IFN-γ using ELISA MAX™ Deluxe (Biolegend, San Diego, CA; #430804).
Additionally, cell supernatants were collected and secreted CCL18 protein was detected by ELISA.

Data set [4] has as its system M2-induced THP-1 macrophages. Nature of the data set: Reprogramming of M2-polarized THP-1 macrophages, marker mRNA by qPCR. It counts as cell-based, human. The conditions noted are these: 48 hours incubation, FIGS. 3A-3F, compared with nontargeted Compound 1A.
The next data set relates to BM-induced mice. Nature of the data set: Bleomycin-induced pulmonary fibrosis, markers in bronchoalveolar lavage cells and fluid. It counts as in vivo, C57BL/6 mice. How it is done: Fresh water and folate-deficient diet were freely available.
After 2 hours, mice were sacrificed using CO2 asphyxiation and an incision in the skin from the abdomen to neck was immediately made to expose the lungs and trachea. A small cut in the upper trachea was then introduced for insertion of a blunted, 22-gauge needle, and a nylon string was tied around the trachea to seal the trachea around the needle. The trachea (containing the inserted needle), lungs and heart were then removed en masse by carefully cutting the connective tissue beneath the lungs, and the bronchus of left lung was clipped with a Dieffenbach vessel clip. The right lung was injected with PBS and aspirated 3 times using a 1 ml syringe, and the recovered lavage fluid was saved on ice.
Bronchoalveolar lavage fluid (BALF) was then analyzed to determine how the targeted TLR7 agonist works. BALF samples were centrifuged at 1500 rpm for 5 min at 4° C., and the supernatant was aliquoted and stored at −80° C., for cytokine/chemokine analyses. Cell pellets were resuspended and cultured in pre-warmed RPMI 1640 medium for 2 hours and then washed 3x with pre-warmed PBS prior to harvesting for qPCR assay. The right lung was then tied with a nylon string and used for subsequent analysis of hydroxyproline content. The left lung was inflated with 1 ml PBS using the inserted syringe and transferred to 10% formalin solution for subsequent histological analyses.
as §1

Where [5] appears, read: continuous incubation 48 hours, ELISA.
Where [6] appears, read: dosing every other day from day 10, BALF day 21.

Protocol for healthy mice: (FIGS. 20A-C) Measurement of plasma IL-6 (FIG. 20A), IFNα (FIG. 20B) and TNFα (FIG. 20C) (n=3). […] The effect of drug concentration on plasma levels of IL-6 (FIG. 20D), IFNα (FIG. 20E), and TNFα (FIG. 20F) was determined at 1.5 hours, 1 hour, or 1 hour after treatment, respectively (n=2) (FIG. 20G).
The effect of drug on plasma levels of IL-6 (FIG. 23C) and TNFα (FIG. 23D) was determined at 1 hour or 1.5 hours after treatment.

For the compound `CCCCc1nc2c(N)nc3ccccc3c2n1CC(C)(C)OC(=O)OCCSSCC(NC(=O)CCC(NC(=O)c1ccc(NCc2cnc3nc(N)[nH]c(=O)c3n2)cc1)C(=O)O)C(=O)O` (stereo not drawn) [Compound 1B], the stability during incubation result in data set [1] is “remained stable”. The “downregulation of biomarkers with excess FA-glucosamine (competitor)” value in data set [2] is recorded as “blocked”. In data set [3] (setting [5]), the “secreted CCL18 polypeptide” value is “reductions” and the “secreted IL-1β polypeptide” value is “reductions”. Moreover, the “reduction of secreted CCL18 and IL-1β, comparison of 1B with 1A” value in data set [3] (drug exposure limited to 2 hours, then 46 hours fresh medium) is on record as “superior”. Further, the “M2 to M1 marker changes, magnitude of impact” value in data set [4] is “somewhat reduced”. For the same compound, the “total number of BALF cells” value in the data set with BM-induced mice (different doses of Compound 1B) is on record as “decreased in a dose-dependent manner”. Moreover, in the data set with BM-induced mice (setting [6]), the “Arg1 (qPCR, lavage macrophages)” value is “suppressed”; the “CD86 transcripts (qPCR)” value is recorded as “elevated”; the “IFN-γ concentration (ELISA of lavage fluid)” value is reported as “elevated”; the IRAK-4 entry was “upregulation”. In addition, in the data set with BM-induced mice (setting [6]), the “MMP9 (qPCR, lavage macrophages)” value is reported as “suppressed” and the “TIMP 3 (qPCR, lavage macrophages)” value is listed as “suppressed”. In the data set on healthy mice (10 nmol tail vein), the “systemic cytokine release (plasma IL-6, IFNα, TNFα)” value was “does not”. Further, in the data set on healthy mice (plasma at 1 or 1.5 hours, varied dose), the “inflammatory cytokine release, dose comparison” value is given as “stimulates less inflammatory cytokine release than half the dose of Compound 1A”.
